# Laboratory results from patent US11434242B2, “Dopamine-b-hydroxylase inhibitors” (BIAL-PORTELA & Cª, S.A., priority 2017, dated 2022).
# Experiments:
# DβH = biological target: T1, DβH (Homo sapiens, UniProt P09172); experiment: DβH inhibition assay in SK-N-SH cellular homogenates (tyramine to octopamine); format: biochemical; settings: SK-N-SH cell homogenate; for SKNSH (0.1 μM), activity in % of control: inhibitor 0.1 μM; for SKNSH (1 μM), activity in % of control: inhibitor 1 μM
# T1 construct: cellular homogenate (75 μg total protein); host or cells: SK-N-SH cells (homogenate)
# T1 sequence (P09172 1-617): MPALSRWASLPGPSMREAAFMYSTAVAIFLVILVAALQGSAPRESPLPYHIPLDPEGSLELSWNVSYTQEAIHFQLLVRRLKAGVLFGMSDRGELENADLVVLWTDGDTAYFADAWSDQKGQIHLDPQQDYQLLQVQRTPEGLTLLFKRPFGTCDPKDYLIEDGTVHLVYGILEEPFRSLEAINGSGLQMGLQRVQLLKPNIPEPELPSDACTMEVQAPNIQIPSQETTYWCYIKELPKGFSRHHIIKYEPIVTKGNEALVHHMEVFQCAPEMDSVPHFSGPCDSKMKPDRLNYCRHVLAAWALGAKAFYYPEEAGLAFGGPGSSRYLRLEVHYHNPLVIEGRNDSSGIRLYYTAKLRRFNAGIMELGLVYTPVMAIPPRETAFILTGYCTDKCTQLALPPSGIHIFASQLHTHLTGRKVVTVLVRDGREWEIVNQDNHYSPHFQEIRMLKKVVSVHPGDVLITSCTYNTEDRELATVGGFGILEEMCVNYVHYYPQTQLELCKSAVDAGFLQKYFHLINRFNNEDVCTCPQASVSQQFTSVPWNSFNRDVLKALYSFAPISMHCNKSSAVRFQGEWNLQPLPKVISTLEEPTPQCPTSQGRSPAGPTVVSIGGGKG
# [1] = biological target: T2, Dopamine beta hydroxylase (Homo sapiens, UniProt P09172); experiment: Dopamine beta hydroxylase activity in human plasma; format: biochemical; settings: for Plasma (0.1 μM), activity in % of control: inhibitor 0.1 μM; for Plasma (1 μM), activity in % of control: inhibitor 1 μM
# T2 construct: 125 μl of plasma; tissue Instituto Português do Sangue Transplantação; host or cells: human plasma from healthy donors
# T2 sequence (P09172 40-617 limits assumed): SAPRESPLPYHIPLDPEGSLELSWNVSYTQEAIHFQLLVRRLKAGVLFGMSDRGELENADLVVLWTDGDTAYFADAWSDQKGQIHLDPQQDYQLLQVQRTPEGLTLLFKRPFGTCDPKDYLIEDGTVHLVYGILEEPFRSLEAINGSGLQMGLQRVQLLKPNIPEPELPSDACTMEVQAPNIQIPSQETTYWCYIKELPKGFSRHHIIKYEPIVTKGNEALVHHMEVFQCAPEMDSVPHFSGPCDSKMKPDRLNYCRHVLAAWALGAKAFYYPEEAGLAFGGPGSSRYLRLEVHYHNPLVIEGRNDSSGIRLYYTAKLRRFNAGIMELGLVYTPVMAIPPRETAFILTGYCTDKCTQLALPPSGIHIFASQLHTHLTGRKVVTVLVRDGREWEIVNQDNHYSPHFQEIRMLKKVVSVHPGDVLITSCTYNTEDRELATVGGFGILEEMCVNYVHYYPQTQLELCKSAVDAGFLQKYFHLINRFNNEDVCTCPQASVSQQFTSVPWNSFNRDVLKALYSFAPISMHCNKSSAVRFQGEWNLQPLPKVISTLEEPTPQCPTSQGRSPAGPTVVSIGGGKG
# How it was run: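 Healthy-donor human plasma pre-incubated 10 min at 37° C with compound at final 10, 100 or 1000 nM in pH 5.0 acetate buffer with ascorbate, fumarate, pargyline, N-ethylmaleimide, catalase and copper sulfate. Tyramine substrate then added for 45 min; octopamine formed was isolated by SCX cartridge, periodate-converted and read at 330 nm; activity given as % control.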
"SKNSH (0.1 μM), activity in % of control (DβH)","SKNSH (1 μM), activity in % of control (DβH)","Plasma (0.1 μM), activity in % of control [1]","Plasma (1 μM), activity in % of control [1]",SMILES
48.9 % of control,3.9 % of control,62.1 % of control,11.1 % of control,"CCOC(=O)Cc1[nH]c(=S)n2c1[C@@H]1C[C@]1(c1cc(F)cc(Cl)c1)C2 [Example 55, Ethyl 2-((5aS,6aR)-5a-(3-chloro-5-fluorophenyl)-3-thioxo-2,3,5,5a,6,6a-hexahydrocyclopropa[3,4]pyrrolo[1,2-c]imidazol-1-yl)acetate]"
0.4 % of control,0 % of control,5.7 % of control,0 % of control,"O=C(O)Cc1[nH]c(=S)n2c1[C@@H]1C[C@]1(c1c(F)ccc(Br)c1F)C2 [Example 51, 2-((5aS,6aR)-5a-(3-bromo-2,6-difluorophenyl)-3-thioxo-2,3,5,5a,6,6a-hexahydrocyclopropa[3,4]pyrrolo[1,2-c]imidazol-1-yl)acetic Acid]"
13.4 % of control,0 % of control,26.2 % of control,2.7 % of control,"O=C(O)Cc1[nH]c(=S)n2c1[C@@H]1C[C@]1(c1cc(F)cc(Cl)c1)C2 [Example 53, 2-((5aS,6aR)-5a-(3-chloro-5-fluorophenyl)-3-thioxo-2,3,5,5a,6,6a-hexahydrocyclopropa[3,4]pyrrolo[1,2-c]imidazol-1-yl)acetic Acid]"
33.8 % of control,4.2 % of control,32.2 % of control,3.4 % of control,"CCOC(=O)Cc1[nH]c(=S)n2c1[C@@H]1C[C@]1(c1cc(Cl)ccc1F)C2 [Example 54, Ethyl 2-((5aS,6aR)-5a-(5-chloro-2-fluorophenyl)-3-thioxo-2,3,5,5a,6,6a-hexahydrocyclopropa[3,4]pyrrolo[1,2-c]imidazol-1-yl)acetate]"
11.6 % of control,0.2 % of control,18.1 % of control,0.1 % of control,"NC(=O)Cc1[nH]c(=S)n2c1[C@@H]1C[C@]1(c1c(F)ccc(Br)c1F)C2 [Example 57, 2-((5aS,6aR)-5a-(3-bromo-2,6-difluorophenyl)-3-thioxo-2,3,5,5a,6,6a-hexahydrocyclopropa[3,4]pyrrolo[1,2-c]imidazol-1-yl)acetamide]"
,19.9 % of control,,,"COC(=O)Cc1[nH]c(=S)n2c1[C@@H]1C[C@]1(c1cc(F)cc(F)c1)C2 [Example 5, Methyl 2-((5aS,6aR)-5a-(3,5-difluorophenyl)-3-thioxo-2,3,5,5a,6,6a-hexahydrocyclopropa[3,4]pyrrolo[1,2-c]imidazol-1-yl)acetate]"
,15.3 % of control,,,"OCCc1[nH]c(=S)n2c1[C@@H]1C[C@]1(c1cc(F)cc(F)c1)C2 [Example 8, (5aS,6aR)-5a-(3,5-difluorophenyl)-1-(2-hydroxyethyl)-5,5a,6,6a-tetrahydrocyclopropa[3,4]pyrrolo[1,2-c]imidazole-3(2H)-thione]"
56.8 % of control,9.3 % of control,59.2 % of control,14.0 % of control,"NC(=O)Cc1[nH]c(=S)n2c1[C@@H]1C[C@]1(c1cc(F)cc(Cl)c1)C2 [Example 58, 2-((5aS,6aR)-5a-(3-chloro-5-fluorophenyl)-3-thioxo-2,3,5,5a,6,6a-hexahydrocyclopropa[3,4]pyrrolo[1,2-c]imidazol-1-yl)acetamide]"
9.2 % of control,0.2 % of control,10.3 % of control,1.6 % of control,"O=C(O)Cc1[nH]c(=S)n2c1[C@@H]1C[C@]1(c1cc(Cl)ccc1F)C2 [Example 52, 2-((5aS,6aR)-5a-(5-chloro-2-fluorophenyl)-3-thioxo-2,3,5,5a,6,6a-hexahydrocyclopropa[3,4]pyrrolo[1,2-c]imidazol-1-yl)acetic Acid]"
,35.8 % of control,,,"O=C(O)Cc1[nH]c(=S)n2c1C[C@@H](c1cc(F)ccc1F)C2 [Example 3, (S)-2-(6-(2,5-difluorophenyl)-3-thioxo-3,5,6,7-tetrahydro-2H-pyrrolo[1,2-c]imidazol-1-yl)acetic Acid]"
,29.3 % of control,,,"CN(CCc1[nH]c(=S)n2c1[C@@H]1C[C@]1(c1cc(F)ccc1F)C2)Cc1ccccc1 [Example 40, (5aS,6aR)-1-(2-(benzyl(methyl)amino)ethyl)-5a-(2,5-difluorophenyl)-5,5a,6,6a-tetrahydrocyclopropa[3,4]pyrrolo[1,2-c]imidazole-3(2H)-thione]"
,29.8 % of control,,,"CCCCN(C)CCc1[nH]c(=S)n2c1[C@@H]1C[C@]1(c1cc(F)ccc1F)C2.Cl [Example 39, (5aS,6aR)-1-(2-(butyl(methyl)amino)ethyl)-5a-(2,5-difluorophenyl)-5,5a,6,6a-tetrahydrocyclopropa[3,4]pyrrolo[1,2-c]imidazole-3(2H)-thione Hydrochloride]"
,49.3 % of control,,,"CCOC(=O)Cc1[nH]c(=S)n2c1C[C@@H](c1cc(F)ccc1F)C2 [Example 2, (S)-ethyl 2-(6-(2,5-difluorophenyl)-3-thioxo-3,5,6,7-tetrahydro-2H-pyrrolo[1,2-c]imidazol-1-yl)acetate]"

SMILES,"SKNSH (0.1 μM), activity in % of control (DβH)","SKNSH (1 μM), activity in % of control (DβH)","Plasma (0.1 μM), activity in % of control [1]","Plasma (1 μM), activity in % of control [1]"
"O=Cc1[nH]c(=S)n2c1C[C@@H](c1cc(F)cc(F)c1)C2 [Example 45, (S)-6-(3,5-difluorophenyl)-3-thioxo-3,5,6,7-tetrahydro-2H-pyrrolo[1,2-c]imidazole-1-carbaldehyde]",,46.8 % of control,,
"Fc1ccc(F)c([C@]23C[C@H]2c2c(CCc4ccccc4)[nH]c(=S)n2C3)c1 [Example 48, (5aS,6aR)-5a-(2,5-difluorophenyl)-1-phenethyl-5,5a,6,6a-tetrahydrocyclopropa[3,4]pyrrolo[1,2-c]imidazole-3(2H)-thione]",,48.4 % of control,,
"CCOC(=O)Cc1[nH]c(=S)n2c1C[C@@H](c1cc(F)cc(F)c1)C2 [Example 1, (S)-ethyl 2-(6-(3,5-difluorophenyl)-3-thioxo-3,5,6,7-tetrahydro-2H-pyrrolo[1,2-c]imidazol-1-yl)acetate]",,37.9 % of control,,
"COC(=O)Cc1[nH]c(=S)n2c1[C@@H]1C[C@]1(c1cc(F)ccc1F)C2 [Example 4, Methyl 2-((5aS,6aR)-5a-(2,5-difluorophenyl)-3-thioxo-2,3,5,5a,6,6a-hexahydrocyclopropa[3,4]pyrrolo[1,2-c]imidazol-1-yl)acetate]",,20.3 % of control,,
"N#CNC(=O)Cc1[nH]c(=S)n2c1C[C@@H](c1c(F)c(F)cc(F)c1F)C2 [Example 19, (S)—N-cyano-2-(6-(2,3,5,6-tetrafluorophenyl)-3-thioxo-3,5,6,7-tetrahydro-2H-pyrrolo[1,2-c]imidazol-1-yl)acetamide]",,16.4 % of control,,
